Measured values reported in patent US20240132431A1, “METHOD FOR ALKYLATING ACIDIC FUNCTIONAL GROUP” (Chugai Seiyaku Kabushiki Kaisha, priority 2021, published 2024).

Molecular target: T1, Bcl-2 protein (Recombinant Human Bcl-2 Protein) (Homo sapiens, UniProt P10415)
T1 construct: purchased Novus NBP2-34889
Assay: Binding evaluation of mixture library compounds to Bcl-2 using AS-MS (affinity selection mass spectrometry)
Procedure, shortened: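 Readout is ASMS Ratio (%), (A−C)/B×100, from reversed-phase LC/MS of SEC-passed extracts, with protein-free unfiltered standard (B) and protein-free SEC blank (C). Recombinant human Bcl-2 at 20 μM final met ~1200 pooled compounds at […] each for 1 h, 23° C., dark, in Tris-HCl pH 7.4 buffer.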

T1 sequence (P10415 whole entry): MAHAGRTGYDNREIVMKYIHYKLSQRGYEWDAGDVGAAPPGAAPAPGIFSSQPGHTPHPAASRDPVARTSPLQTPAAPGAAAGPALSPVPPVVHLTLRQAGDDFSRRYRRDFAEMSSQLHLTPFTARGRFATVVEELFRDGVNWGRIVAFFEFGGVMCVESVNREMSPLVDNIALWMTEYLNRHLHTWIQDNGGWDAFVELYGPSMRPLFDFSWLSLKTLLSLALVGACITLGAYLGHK

Row | Compound | ASMS ratio (%) (n = 1) | ASMS ratio (%) (n = 2)
1 | CCOc1cncc(-c2csc(C(=O)N3CCN(c4ccc(C(=O)NS(=O)(=O)c5ccc(NCCSc6ccccc6)c(C(F)(F)F)c5)nn4)CC3)c2)c1 [B2R002-01, 6-[4-[4-(5-Ethoxypyridin-3-yl)thiophene-2-carbonyl]piperazin-1-yl]-N-[4-(2-phenylsulfanylethylamino)-3-(trifluoromethyl)phenyl]sulfonylpyridazine-3-carboxamide] | 0.0 | 0.0
2 | CCOc1cccc(-c2ccc(C(=O)N3CCN(c4ccc(C(=O)NS(=O)(=O)c5ccc(NCCSc6ccccc6)c(C(F)(F)F)c5)nn4)CC3)cc2C)c1 [B2R003-01, 6-[4-[4-(3-Ethoxyphenyl)-3-methylbenzoyl]piperazin-1-yl]-N-[4-(2-phenylsulfanylethylamino)-3-(trifluoromethyl)phenyl]sulfonylpyridazine-3-carboxamide] | 21.6 | 0.0
3 | CCOc1cncc(-c2ccc(C(=O)N3CCN(c4ccc(C(=O)NS(=O)(=O)c5ccc(NCCSc6ccccc6)c(C(F)(F)F)c5)nn4)CC3)cc2C)c1 [B2R004-01, 6-[4-[4-(5-Ethoxypyridin-3-yl)-3-methylbenzoyl]piperazin-1-yl]-N-[4-(2-phenylsulfanylethylamino)-3-(trifluoromethyl)phenyl]sulfonylpyridazine-3-carboxamide] | 0.0 | 0.0
4 | CCOc1cccc(-c2ccc(C(=O)N3CCN(c4ccc(C(=O)NS(=O)(=O)c5ccc(NCCSc6ccccc6)c(C(F)(F)F)c5)nn4)CC3)cc2F)c1 [B2R005-01, 6-[4-[4-(3-ethoxyphenyl)-3-fluorobenzoyl]piperazin-1-yl]-N-[4-(2-phenylsulfanylethylamino)-3-(trifluoromethyl)phenyl]sulfonylpyridazine-3-carboxamide] | 44.0 | 39.5
5 | CCOc1cccc(C#Cc2ccccc2C(=O)N2CCN(c3ccc(C(=O)NS(=O)(=O)c4ccc(NCCSc5ccccc5)c(C(F)(F)F)c4)nn3)CC2)c1 [B2R007-01, 6-[4-[2-[2-(3-Ethoxyphenyl)ethynyl]benzoyl]piperazin-1-yl]-N-[4-(2-phenylsulfanylethylamino)-3-(trifluoromethyl)phenyl]sulfonylpyridazine-3-carboxamide] | 0.0 | 
6 | CCOc1cncc(C#Cc2ccccc2C(=O)N2CCN(c3ccc(C(=O)NS(=O)(=O)c4ccc(NCCSc5ccccc5)c(C(F)(F)F)c4)nn3)CC2)c1 [B2R008-01, 6-[4-[2-[2-(5-Ethoxypyridin-3-yl)ethynyl]benzoyl]piperazin-1-yl]-N-[4-(2-phenylsulfanylethylamino)-3-(trifluoromethyl)phenyl]sulfonylpyridazine-3-carboxamide] | 0.0 | 19.5
7 | CCOc1cccc(C#Cc2cncc(C(=O)N3CCN(c4ccc(C(=O)NS(=O)(=O)c5ccc(NCCSc6ccccc6)c(C(F)(F)F)c5)nn4)CC3)c2)c1 [B2R009-01, 6-[4-[5-[2-(3-Ethoxyphenyl)ethynyl]pyridine-3-carbonyl]piperazin-1-yl]-N-[4-(2-phenylsulfanylethylamino)-3-(trifluoromethyl)phenyl]sulfonylpyridazine-3-carboxamide] | 0.0 | 19.5
8 | CCOc1cncc(C#Cc2cncc(C(=O)N3CCN(c4ccc(C(=O)NS(=O)(=O)c5ccc(NCCSc6ccccc6)c(C(F)(F)F)c5)nn4)CC3)c2)c1 [B2R010-01, 6-[4-[5-[2-(5-Ethoxypyridin-3-yl)ethynyl]pyridine-3-carbonyl]piperazin-1-yl]-N-[4-(2-phenylsulfanylethylamino)-3-(trifluoromethyl)phenyl]sulfonylpyridazine-3-carboxamide] | 0.0 | 0.0
